Data on one molecule can be found in patent US20040086945A1, “Hairless protein-interacting partner complexes and methods thereto” (The Procter & Gamble Company, priority 2002, published 2004).

This assay has as its system Male C3H mice. Kind of assay: Animal model for hair growth stimulation (HGS) activity. Format: in vivo. Particulars: applied daily for 17 days to shaved, Nair-treated back; day 17 compared to control treatment. The protocol:
Male C3H mice (˜42-48 days old and weighing ˜24 g) purchased from Harlan are acclimatized for 2 days and ˜2 cm^2 area on their back is shaved closely with an electric hair trimmer. To the shaved area, ˜300 μl of Nair lotion (NEW! Quick'n Easy 4 Minute Formula) is thinly smeared with a gloved fingertip for ˜30 sec. The area is wiped with Kimwipes for ˜15 sec and immediately washed under a gentle stream of lukewarm water for ˜50 sec and patted dry with Kimwipes. Test materials are applied (5 animals/test material) daily for 17 days. The shaved area is visually observed every day for anagen conversion and hair growth. Animal backs are photographed on day 8 and 17. In this model Triiodo thyronine (T3) has clear HGS activity (100% HGS activity), as evidenced by early onset of pigmentation and clear increase in hair length at day 17 compared to control treatment (60% ethanol, 20% propylene glycol and 20% Transcutol).

`N[C@@H](Cc1cc(I)c(Oc2ccc(O)c(I)c2)c(I)c1)C(=O)O` [Triiodo thyronine] came in with an HGS activity of 100%.
